Reference: US11567085B2, “Photo-cleavable surfactants” (Wisconsin Alumni Research Foundation, priority 2018, dated 2023)

How the values were obtained:
[1] = format: physicochemical
Method: Several degradation conditions were compared (i.e., organic vs. aqueous solutions in the presence or absence of acid and reducing agents) to determine the most favorable conditions (FIG. 11).
UV-Vis degradation. […] The samples were diluted to a final volume of 1 mL in H2O. A UV-Vis spectrum was taken from each sample with a Varian Cary 50 UV-Visible spectrophotometer (background correction, medium scan rate, 600-200 nm).

cardiac tissue proteins = test: Surfactant-aided protein extraction from insoluble cardiac tissue pellet, SDS-PAGE and protein assay; conditions: 0.5% surfactant in 25 mM NH4HCO3; SDS-PAGE and Bradford protein assay (FIG. 16)
Method: Data presented were based on three independent experiments (n=3). Error bars represent standard error of the mean.
Protein extraction from cardiac tissue. The frozen tissue samples (˜500 mg) were cut into small pieces and washed with PBS buffer containing protease inhibitors and reducing agent (5 mM DTT, 1 mM PMSF, 1× protease inhibitor cocktail). […] The homogenate was centrifuged at 211,750×g using Beckman Ultracentrifuge and a Ti-80 rotor for 1 h. The supernatant after the first HEPES extraction was removed and saved as “E1” extraction. The HEPES extraction was repeated on the resulting pellet and saved as “E2”. After the second HEPES extraction, the tissue pellet was suspended in 25 mM NH4HCO3 and evenly divided into smaller aliquots. In one aliquot, 25 mM NH4HCO3 buffer with no surfactant (NS) was used in a 1:1 ratio (homogenate:buffer) and labeled as “E3”. In the other aliquots, surfactants (1% in 25 mM NH4HCO3) were individually added to the other aliquots in a 1:1 ratio (homogenate:surfactant) and labeled as “E3” following incubation and centrifugation.

Compound	degradation time upon UV irradiation [1] [s]	protein solubilization ability (cardiac tissue proteins)
4-hexylphenylazosulfonate	30 to 150	
CCCCCCCCCCC(OC(=O)NCCCS(=O)(=O)[O-])c1ccco1.[Na+] (stereo not drawn) [PM]		drastically better protein solubilization ability
CCCCCCCCCCCC1(C)OCC(COCCCS(=O)(=O)[O-])O1.[Na+] (stereo not drawn) [RG]		drastically better protein solubilization ability
